# Data from the Kinase Knowledgebase extract (Sharma et al. 2016).
# Biological target: PIK3CG (human) (UniProt P48736)
# Experiment: Assessment of PIK3CG Kinase Activity
# PIK3CG (human), sequence (P48736 whole entry, looked up): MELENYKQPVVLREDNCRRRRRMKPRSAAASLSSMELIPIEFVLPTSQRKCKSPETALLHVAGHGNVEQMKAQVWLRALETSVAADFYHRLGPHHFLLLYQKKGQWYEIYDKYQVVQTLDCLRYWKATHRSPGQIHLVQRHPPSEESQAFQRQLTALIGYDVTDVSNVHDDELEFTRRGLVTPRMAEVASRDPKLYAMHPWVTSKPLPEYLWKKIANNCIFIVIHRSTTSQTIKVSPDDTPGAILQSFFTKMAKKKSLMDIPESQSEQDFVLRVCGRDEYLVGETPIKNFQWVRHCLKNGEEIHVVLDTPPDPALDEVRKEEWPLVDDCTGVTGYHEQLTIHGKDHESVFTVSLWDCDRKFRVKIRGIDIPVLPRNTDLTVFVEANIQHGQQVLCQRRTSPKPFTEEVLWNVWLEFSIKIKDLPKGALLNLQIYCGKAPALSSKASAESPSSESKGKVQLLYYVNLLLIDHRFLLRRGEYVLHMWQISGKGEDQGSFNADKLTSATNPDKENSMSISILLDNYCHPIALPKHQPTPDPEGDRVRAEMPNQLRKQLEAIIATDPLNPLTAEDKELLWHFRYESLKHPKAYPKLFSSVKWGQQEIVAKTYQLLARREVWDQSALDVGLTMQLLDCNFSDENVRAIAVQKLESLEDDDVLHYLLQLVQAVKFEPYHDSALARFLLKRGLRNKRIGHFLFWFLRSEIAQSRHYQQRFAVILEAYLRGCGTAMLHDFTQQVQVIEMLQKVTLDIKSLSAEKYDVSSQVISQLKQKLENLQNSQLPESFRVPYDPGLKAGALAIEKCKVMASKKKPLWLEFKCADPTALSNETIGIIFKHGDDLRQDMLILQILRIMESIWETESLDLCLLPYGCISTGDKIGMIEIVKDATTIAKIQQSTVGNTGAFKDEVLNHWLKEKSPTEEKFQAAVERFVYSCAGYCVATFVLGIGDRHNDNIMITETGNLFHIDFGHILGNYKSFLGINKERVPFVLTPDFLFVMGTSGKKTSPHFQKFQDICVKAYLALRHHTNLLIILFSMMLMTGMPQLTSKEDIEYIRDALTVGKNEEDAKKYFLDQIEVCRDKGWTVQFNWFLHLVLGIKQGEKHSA
row,SMILES,IC50 [nM]
1,CN(C)C(=O)CNC(=O)Nc1nc2c(s1)-c1c(c(C3CC3)nn1-c1ccccc1Cl)CC2,< 800
2,COc1cc(CNC(=O)Nc2nc3c(s2)-c2c(c(-c4cncnc4)nn2-c2ccccc2Cl)CC3)cc(OC)c1,< 800
3,O=C(NC[C@@H]1CCCN1)Nc1nc2c(s1)-c1c(c(-c3cncnc3)nn1-c1ccccc1Cl)CC2,< 800
4,O=C(NCCC(=O)N1CCCCC1)Nc1nc2c(s1)-c1c(c(-c3cncnc3)nn1-c1ccccc1Cl)CC2,< 800
5,CC(=O)Nc1cccc(CNC(=O)Nc2nc3c(s2)-c2c(c(-c4cccnc4)nn2C2CCN(C4CCCC4)CC2)CC3)c1,< 800
6,CCc1cnc(CCNC(=O)Nc2nc3c(s2)-c2c(c(Nc4ccccn4)nn2-c2ccccc2)CC3)o1,< 800
7,O=C(Nc1nc2c(s1)-c1c(c(-c3cncnc3)nn1-c1ccccc1Cl)CC2)NC1CCCNC1 (stereo not given),< 800
8,CC(C)OC(=O)N1CCC[C@@H]1CNC(=O)Nc1nc2c(s1)-c1c(c(-c3cncnc3)nn1-c1ccccc1Cl)CC2,< 800
9,CN1CCC(n2nc(-c3cncnc3)c3c2-c2sc(NC(=O)NC[C@H]4CCCN4C(=O)N4CCCC4)nc2CC3)CC1,< 800
10,CNC(=O)[C@H](C)NC(=O)Nc1nc2c(s1)-c1c(c(-c3ccccc3)nn1-c1ccccc1Cl)CC2,< 800
11,CCc1noc(CCNC(=O)Nc2nc3c(s2)-c2c(c(-c4cccnc4)nn2-c2ccccc2Cl)CC3)n1,< 800
12,O=C(NCc1ccc2cc[nH]c2c1)Nc1nc2c(s1)-c1c(c(-c3cccnc3)nn1-c1ccccc1Cl)CC2,< 800
13,CC(C)c1nnc(CCNC(=O)Nc2nc3c(s2)-c2c(c(-c4ccccc4)nn2-c2cccc(Cl)c2)CC3)o1,< 800
14,CS(=O)(=O)Nc1cccc(NC(=O)Nc2nc3c(s2)-c2c(c(-c4ccccc4)nn2-c2ccccc2Cl)CC3)c1,< 800
15,C[C@@H](NC(=O)Nc1nc2c(s1)-c1c(c(-c3ccccc3)nn1-c1ccccc1Cl)CC2)C(=O)N1CCCCC1,< 800
